From PMC9489211, “Regulation of pulmonary surfactant by the adhesion GPCR GPR116/ADGRF5 requires a tethered agonist-mediated activation mechanism” (eLife, 2022)
Where two headings read alike, the source gives them in different places. Where a SMILES comes first, the peptide text is derived from it. Where no end group is shown, it is not given here. [ ]: non-standard residue; d: D form. Nle = CCCC[C@H](N)C(=O)O

T1: full-length mGPR116 (HEK293 clone 3C) (Mus musculus, UniProt G5E8Q8)
T1 construct: expressed in transfected cells
T1 sequence (G5E8Q8 22-1348): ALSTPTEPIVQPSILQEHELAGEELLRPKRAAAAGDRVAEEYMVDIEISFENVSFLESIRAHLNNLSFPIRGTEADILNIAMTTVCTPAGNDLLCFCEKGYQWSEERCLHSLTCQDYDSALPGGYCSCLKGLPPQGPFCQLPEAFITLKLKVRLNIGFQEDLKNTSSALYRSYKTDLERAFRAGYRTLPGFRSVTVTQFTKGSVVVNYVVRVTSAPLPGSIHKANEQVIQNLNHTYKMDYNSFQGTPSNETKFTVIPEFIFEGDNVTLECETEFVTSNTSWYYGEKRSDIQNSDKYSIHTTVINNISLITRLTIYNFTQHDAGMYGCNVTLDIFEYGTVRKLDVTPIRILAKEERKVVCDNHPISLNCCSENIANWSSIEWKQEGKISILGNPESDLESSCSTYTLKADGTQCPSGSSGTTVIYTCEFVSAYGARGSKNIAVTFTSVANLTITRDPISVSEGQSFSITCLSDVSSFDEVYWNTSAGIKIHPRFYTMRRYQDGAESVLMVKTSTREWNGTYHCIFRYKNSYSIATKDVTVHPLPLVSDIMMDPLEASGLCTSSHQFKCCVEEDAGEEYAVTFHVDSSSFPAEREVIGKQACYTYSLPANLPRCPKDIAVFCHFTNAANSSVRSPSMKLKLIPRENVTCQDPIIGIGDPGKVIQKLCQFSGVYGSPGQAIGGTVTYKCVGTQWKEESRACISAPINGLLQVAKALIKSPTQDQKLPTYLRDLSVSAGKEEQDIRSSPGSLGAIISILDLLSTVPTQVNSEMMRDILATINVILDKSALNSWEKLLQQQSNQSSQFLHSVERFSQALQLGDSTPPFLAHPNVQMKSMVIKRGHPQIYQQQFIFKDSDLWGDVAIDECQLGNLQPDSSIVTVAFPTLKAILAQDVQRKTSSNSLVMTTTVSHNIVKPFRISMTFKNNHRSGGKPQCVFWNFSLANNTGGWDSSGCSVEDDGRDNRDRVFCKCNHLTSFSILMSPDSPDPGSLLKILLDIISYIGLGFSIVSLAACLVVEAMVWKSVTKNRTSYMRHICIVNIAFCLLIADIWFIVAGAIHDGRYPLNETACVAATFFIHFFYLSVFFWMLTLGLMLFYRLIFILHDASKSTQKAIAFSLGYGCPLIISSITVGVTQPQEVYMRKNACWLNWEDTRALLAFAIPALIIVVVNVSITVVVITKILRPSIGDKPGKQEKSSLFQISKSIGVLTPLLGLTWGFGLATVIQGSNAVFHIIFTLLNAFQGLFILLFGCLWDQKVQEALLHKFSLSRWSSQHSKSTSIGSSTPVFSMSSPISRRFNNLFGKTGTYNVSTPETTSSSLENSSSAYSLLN

T2: full-length hGPR116 (HEK293 clone A6) (Homo sapiens, UniProt Q8IZF2)
T2 construct: expressed in transfected cells
T2 sequence (Q8IZF2 22-1346): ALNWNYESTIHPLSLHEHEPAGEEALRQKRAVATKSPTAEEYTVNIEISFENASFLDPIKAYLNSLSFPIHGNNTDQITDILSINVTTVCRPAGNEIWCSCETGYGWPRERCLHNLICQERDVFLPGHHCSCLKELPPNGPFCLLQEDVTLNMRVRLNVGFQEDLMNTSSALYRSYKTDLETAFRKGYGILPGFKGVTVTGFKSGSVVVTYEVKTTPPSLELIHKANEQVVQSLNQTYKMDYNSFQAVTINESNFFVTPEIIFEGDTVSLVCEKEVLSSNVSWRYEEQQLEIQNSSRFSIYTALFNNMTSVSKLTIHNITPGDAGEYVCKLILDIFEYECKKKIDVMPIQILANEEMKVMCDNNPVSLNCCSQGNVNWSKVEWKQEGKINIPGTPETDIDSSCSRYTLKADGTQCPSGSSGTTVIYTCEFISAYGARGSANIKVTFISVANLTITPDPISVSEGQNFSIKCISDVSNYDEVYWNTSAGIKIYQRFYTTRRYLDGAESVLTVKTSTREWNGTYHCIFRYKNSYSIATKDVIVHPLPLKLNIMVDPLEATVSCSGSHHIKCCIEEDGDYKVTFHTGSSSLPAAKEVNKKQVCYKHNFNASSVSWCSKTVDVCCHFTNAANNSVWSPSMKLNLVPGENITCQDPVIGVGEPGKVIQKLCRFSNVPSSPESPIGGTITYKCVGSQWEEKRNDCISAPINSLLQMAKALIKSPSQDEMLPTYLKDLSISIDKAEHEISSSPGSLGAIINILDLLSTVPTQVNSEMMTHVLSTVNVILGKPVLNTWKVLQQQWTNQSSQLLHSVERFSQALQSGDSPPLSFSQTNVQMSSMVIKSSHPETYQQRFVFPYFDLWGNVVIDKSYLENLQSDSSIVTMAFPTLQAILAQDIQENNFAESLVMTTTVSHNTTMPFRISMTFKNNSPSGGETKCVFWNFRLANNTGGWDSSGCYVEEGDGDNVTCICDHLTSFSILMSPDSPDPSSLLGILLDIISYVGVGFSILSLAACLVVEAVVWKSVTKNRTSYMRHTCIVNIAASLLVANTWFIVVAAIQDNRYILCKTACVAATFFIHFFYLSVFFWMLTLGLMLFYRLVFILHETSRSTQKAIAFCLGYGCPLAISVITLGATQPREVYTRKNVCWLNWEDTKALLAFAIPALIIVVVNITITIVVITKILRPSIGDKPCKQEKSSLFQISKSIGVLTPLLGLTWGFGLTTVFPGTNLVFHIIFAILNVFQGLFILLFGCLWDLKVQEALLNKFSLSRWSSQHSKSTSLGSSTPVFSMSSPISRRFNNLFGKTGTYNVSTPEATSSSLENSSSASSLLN

T3: mouse GPR116 full-length, V5 tagged, clone 1D8 (mouse) (UniProt G5E8Q8)
T3 sequence: T1 sequence (G5E8Q8 22-1348)


Assays:
[1] = molecular target: T1, full-length mGPR116 (HEK293 clone 3C); test: Calcium transient assay, full-length mGPR116 stably expressed in HEK293 (clone 3C); format: cell-based; conditions: for activation of the mouse full-length receptor (in words): calcium flux assays, Figure 3F
Method: (§1) For some constructs, stable populations were generated by treating the cells with G418. After complete selection of resistant cells, these were used in assays. Stable HEK293 clones for full-length hGPR116 (clone A6) and mGPR116 (clone 3C) were described earlier ([Brown et al., 2017]).
(§2) HEK293 cells were seeded in 384-well plates (Greiner, #781946) at 30,000 cells/well. Medium was removed the following day and cells were loaded for 2 hr at 37°C, 5% CO2 with 20 µl Calcium 6 loading buffer (Molecular Devices, Cat# R8191): 1× HBSS (Gibco, Cat# 14065.049) containing 20 mM HEPES (Gibco, Cat#15630) and 2.5 mM probenecid (Sigma, Cat# P8761). Plates were then transferred to a FDSS7000 fluorescence plate reader (HAMAMATSU, Japan) and Ca^2+ responses were measured in real time using a CCD camera with excitation 480 nm/emission 540 nm. Prior to stimulation, baseline measurements were recorded over 5 s (Fmin). For stimulation, 20 µl of test compounds prepared 2× in HBSS containing 20 mM HEPES were dispensed. Fluorescence was read over 1–1.5 min. Maximum fluorescence (Fmax) was determined and normalized to baseline. Data are reported as ∆F/F = (Fmax – Fmin)/Fmin. Adequate response of the endogenous M3R was verified for each transfection, using carbachol at 100 µM and following the same procedure as for the peptide activation.
(§3) Concentration response curves were analyzed using GraphPad Prism 9.2.0. Potency was determined using a nonlinear regression model with variable slope, and statistical significance was determined using a one-way ANOVA followed by Dunnett’s multiple comparison test or a TTEST for comparison of two data sets (*p<0.05, **p<0.01, ***p<0.001, ****p<0.0001, ns, not significant).

[2] = molecular target: T2, full-length hGPR116 (HEK293 clone A6); test: Calcium transient assay, full-length hGPR116 stably expressed in HEK293 (clone A6); format: cell-based; conditions: calcium transients, hFL clone A6, Figure 3-figure supplement 2 / Figure 7A
Method: as §1, §2, §3

[3] = molecular target: T3, mouse GPR116 full-length, V5 tagged, clone 1D8 (mouse)

Molecule | activation of the mouse full-length receptor (in words) [1] | activation of the human full-length receptor (in words) [2] | EC50 of receptor activation (calcium transients), HEK293 cells stably expressing the receptor [3] | also measured
CCCC[C@H](NC(=O)[C@H](CC(C)C)NC(=O)[C@@H](NC(=O)[C@H](CO)NC(=O)[C@H](C)NC(=O)[C@H](CO)NC(=O)[C@@H](N)[C@@H](C)O)[C@@H](C)CC)C(=O)N[C@@H](CO)C(=O)N1CCC[C@H]1C(=O)N[C@@H](CC(=O)O)C(=O)O [GAP10-POS3] (H-TSASIL[Nle]SPD-OH; N-terminus and C-terminus assumed) | failed to activate | failed to activate |  | EC50 ([1]; calcium transient assay, HEK293 clone 3C, Fig 3F, independent experiment n=1 (mean of quadruplicate), read-out: EC50 (uM) n=1): > 100 µM; EC50 ([1]; calcium transient assay, HEK293 clone 3C, Fig 3F, independent experiment n=2 (mean of quadruplicate), read-out: EC50 (uM) n=2): > 100 µM; EC50 ([1]; calcium transient assay, HEK293 clone 3C, Fig 3F, independent experiment n=3 (mean of quadruplicate), read-out: EC50 (uM) n=3): > 100 µM; EC50 ([1]; calcium transient assay, HEK293 clone 3C, Fig 3F, mean of n=2-3 independent experiments, read-out: EC50 (uM) mean): > 100 µM
CCCC[C@H](NC(=O)[C@H](C)NC(=O)[C@@H](NC(=O)[C@H](CO)NC(=O)[C@H](Cc1ccccc1)NC(=O)[C@H](CO)NC(=O)[C@@H](N)[C@@H](C)O)[C@@H](C)CC)C(=O)N[C@@H](CO)C(=O)N1CCC[C@H]1C(=O)N[C@@H](CC(=O)O)C(=O)O [GAP10-POS6] (H-TSFSIA[Nle]SPD-OH; N-terminus and C-terminus assumed) | failed to activate | failed to activate |  | 
TSFSILASPD [GAP10-POS7] | failed to activate | failed to activate |  | 
TSFSILMSPD [GAP10] |  |  |  | EC50 (uM) n=1 ([1]; calcium transient assay, HEK293 clone 3C, Fig 3F, independent experiment n=1 (mean of quadruplicate)): 16.0 µM; EC50 (uM) n=2 ([1]; calcium transient assay, HEK293 clone 3C, Fig 3F, independent experiment n=2 (mean of quadruplicate)): 8.6 µM; EC50 (uM) n=3 ([1]; calcium transient assay, HEK293 clone 3C, Fig 3F, independent experiment n=3 (mean of quadruplicate)): 6.9 µM
TSFSIL[Nle]SPD [GAP10] |  |  | 25 µM | 
TSFSIL[Nle]SPDSPDP [GAP14] |  |  | 107 µM | 
PSFSIL[Nle]SPD [GAP10-Pro1] |  |  | 17 µM | 
